# Patent publication US11339171B2, “MDM2 inhibitors” (Gan & Lee Pharmaceuticals, priority 2017, dated 2022)
# “And” between values parts separate entries of the source, which are not always exact repeats. Identical values can stand only once. Like-named read-outs stand apart in the source and are kept apart here.
# Experiments:
# MDM2 = target: T1, MDM2 (Homo sapiens, UniProt Q00987); assay: Inhibition test of MDM2-P53 (GST-MDM2, Biotin-P53, Anti-GST-Tb, SA-XL665); type: binding
# T1 construct: made in house
# T1 sequence (Q00987 whole entry): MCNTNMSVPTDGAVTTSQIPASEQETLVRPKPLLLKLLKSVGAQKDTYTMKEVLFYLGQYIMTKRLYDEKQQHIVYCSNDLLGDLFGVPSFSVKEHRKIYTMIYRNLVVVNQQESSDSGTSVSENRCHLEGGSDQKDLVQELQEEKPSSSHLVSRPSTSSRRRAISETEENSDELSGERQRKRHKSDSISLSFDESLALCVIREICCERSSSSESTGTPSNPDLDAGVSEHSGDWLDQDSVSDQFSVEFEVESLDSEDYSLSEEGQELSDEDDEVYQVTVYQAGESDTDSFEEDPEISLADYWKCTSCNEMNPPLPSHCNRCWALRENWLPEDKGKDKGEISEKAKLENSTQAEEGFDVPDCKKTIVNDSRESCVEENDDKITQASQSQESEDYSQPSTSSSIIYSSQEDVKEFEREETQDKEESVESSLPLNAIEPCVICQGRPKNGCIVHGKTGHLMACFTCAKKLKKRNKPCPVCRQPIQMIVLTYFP
# Method in brief: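 Binding was measured by TR-FRET with GST-MDM2 at 4 nM final in PBS with 0.1% BSA, 5 mM DTT and 1 mM AEBSF. Compounds were tested as twelve-point 5-fold dilutions and incubated with the detection mix for 90 min at 25 °C with shaking before plate-reader reading and curve fitting.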
# [1] = Pharmacokinetics in ICR mice after intravenous and intragastric administration; type: in vivo; conditions: for MRT last: read-out: MRT(0-t); for MRT inf: read-out: MRT(0-∞); for Vd: read-out: Vz; for half-life: read-out: t1/2 (converted)
# Method in brief: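 Plasma concentration-time data, quantified by LC-MS/MS with a 1 ng/mL lower limit, gave AUC, t1/2, MRT, Cmax, Tmax, bioavailability, Vz and clearance. Overnight-fasted male ICR mice (three per route) received 2 mg/kg intravenously or 5 mg/kg intragastrically.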
# [2] = tested on: human osteosarcoma cell line SJSA-1; assay: Inhibition of proliferation of human osteosarcoma cell line SJSA-1 (DAPI staining, In Cell Analyzer); conditions: Homo sapiens, SJSA-1, 72 h, read-out: IC50 (nM), inhibitory activity on proliferation of human osteosarcoma cell line SJSA-1, SJSA-1, incubated 72 h
# [3] = IV 2 mg/kg, ICR mice, individual animal, 2 mg/kg
# [4] = PO 5 mg/kg, ICR mice, individual animal, 5 mg/kg
# [5] = male, ICR, mouse, plasma, iv, 2 mg/kg, IV 2 mg/kg, ICR mice, Mean
# [6] = male, ICR, mouse, plasma, iv, 2 mg/kg, IV 2 mg/kg, ICR mice, individual animal
# [7] = male, ICR, mouse, plasma, po, 5 mg/kg, PO 5 mg/kg, ICR mice, Mean
# [8] = male, ICR, mouse, plasma, po, 5 mg/kg, PO 5 mg/kg, ICR mice, individual animal
compound,measurement,setting,value
"COc1cc(N(C)C)ccc1-c1nc2c(n1C(C)C)[C@@]1(C(=O)Nc3cc(Cl)ccc31)N(c1cc(Cl)ccc1C)C2=O [Example S-23, (S)-6-chloro-5′-(5-chloro-2-methylphenyl)-2′-(4-(dimethylamino)-2-methoxyphenyl)-3′-isopropyl-3′H-spiro[dihydroindole-3,4′-pyrrolo[3,4-d]imidazole]-2,6′(5′H)-dione]",IC50,MDM2,2.8 nM
same,AUC(0-t),[1]; [3],6172.76 ng·h/mL and 6625.30 ng·h/mL
same,AUC(0-∞),[1]; [3],6427.71 ng·h/mL and 7084.65 ng·h/mL
same,CL,[1]; [3],5.19 mL/min/kg and 4.71 mL/min/kg
same,Cmax,[1]; [3],3040.32 ng/mL and 3640.21 ng/mL
same,MRT(0-t),[1]; [3],1.50 h and 1.55 h
same,MRT(0-∞),[1]; [3],1.75 h and 1.99 h
same,Vz,[1]; [3],0.60 L/kg and 0.64 L/kg
same,t1/2,[1]; [3],1.33 h and 1.57 h
same,F*,"[1]; PO 5 mg/kg vs IV 2 mg/kg, ICR mice",43.18%
same,AUC(0-t),[1]; [4],9122.66 ng·h/mL and 7675.41 ng·h/mL
same,AUC(0-∞),[1]; [4],9163.57 ng·h/mL and 7881.03 ng·h/mL
same,Cmax,[1]; [4],3316.65 ng/mL and 2730.39 ng/mL
same,MRT(0-t),[1]; [4],2.02 h and 2.08 h
same,MRT(0-∞),[1]; [4],2.05 h and 2.29 h
same,Tmax,[1]; [4],0.50 h
same,t1/2,[1]; [4],0.98 h and 1.52 h
same,AUC(0-inf),[1]; [5],8010 ng·h/mL
same,clearance,[1]; [5],4.35 mL/min/kg
same,AUC(0-t),"[1]; male, ICR, mouse, plasma, iv, 2 mg/kg, IV 2 mg/kg, ICR mice, Mean, read-out: AUC(0-t)",7420 ng·h/mL
same,Cmax,"[1]; male, ICR, mouse, plasma, iv, 2 mg/kg, IV 2 mg/kg, ICR mice, Mean, read-out: Cmax",3490 ng/mL
same,MRT last,[1]; [5],1.61 h
same,MRT inf,[1]; [5],2.07 h
same,Tmax,"[1]; male, ICR, mouse, plasma, iv, 2 mg/kg, IV 2 mg/kg, ICR mice, Mean, read-out: Tmax",0.083 h
same,Vd,[1]; [5],0.58 L/kg
same,half-life,[1]; [5],1.59 h
same,AUC(0-inf),[1]; [6],10500 ng·h/mL
same,clearance,[1]; [6],3.17 mL/min/kg
same,AUC(0-t),"[1]; male, ICR, mouse, plasma, iv, 2 mg/kg, IV 2 mg/kg, ICR mice, individual animal, read-out: AUC(0-t)",9460 ng·h/mL
same,Cmax,"[1]; male, ICR, mouse, plasma, iv, 2 mg/kg, IV 2 mg/kg, ICR mice, individual animal, read-out: Cmax",3780 ng/mL
same,MRT last,[1]; [6],1.78 h
same,MRT inf,[1]; [6],2.46 h
same,Tmax,"[1]; male, ICR, mouse, plasma, iv, 2 mg/kg, IV 2 mg/kg, ICR mice, individual animal, read-out: Tmax",0.08 h
same,Vd,[1]; [6],0.51 L/kg
same,half-life,[1]; [6],1.86 h
same,AUC(0-inf),[1]; [7],8120 ng·h/mL
same,AUC(0-t),"[1]; male, ICR, mouse, plasma, po, 5 mg/kg, PO 5 mg/kg, ICR mice, Mean, read-out: AUC(0-t)",8010 ng·h/mL
same,Cmax,"[1]; male, ICR, mouse, plasma, po, 5 mg/kg, PO 5 mg/kg, ICR mice, Mean, read-out: Cmax",2700 ng/mL
same,MRT last,[1]; [7],2.15 h
same,MRT inf,[1]; [7],2.26 h
same,Tmax,"[1]; male, ICR, mouse, plasma, po, 5 mg/kg, PO 5 mg/kg, ICR mice, Mean, read-out: Tmax",0.83 h
same,half-life,[1]; [7],1.22 h
same,AUC(0-inf),[1]; [8],7320 ng·h/mL
same,AUC(0-t),"[1]; male, ICR, mouse, plasma, po, 5 mg/kg, PO 5 mg/kg, ICR mice, individual animal, read-out: AUC(0-t)",7240 ng·h/mL
same,Cmax,"[1]; male, ICR, mouse, plasma, po, 5 mg/kg, PO 5 mg/kg, ICR mice, individual animal, read-out: Cmax",2050 ng/mL
same,MRT last,[1]; [8],2.35 h
same,MRT inf,[1]; [8],2.43 h
same,Tmax,"[1]; male, ICR, mouse, plasma, po, 5 mg/kg, PO 5 mg/kg, ICR mice, individual animal, read-out: Tmax",1 h
same,half-life,[1]; [8],1.15 h
same,AUC(0-t),"[1]; male, ICR, mouse, plasma, po, 5 mg/kg, oral intragastric administration 5 mg/kg, read-out: AUC0-t",8010 ng·h/mL
same,IC50,[2],1.24 nM
